Assay results: patent US20240308999A1 (priority 2021, published 2024)

Tests used:
DAT / SERT [1] = settings: 1/IC50 at DAT divided by 1/IC50 at SERT; uptake inhibition; cited from earlier work
DAT / SERT [2] = settings: neurotransmitter release; cited from earlier work
neuritogenesis = settings: Ly et al. 2018, Figure S3, cited from earlier work
[3] = after 75 or 125 mg MDMA; standard deviation of 1.3 hours; cited from earlier work
[4] = biological target: 5-Hydroxytryptamine (Serotonin) Receptor 1B (Homo sapiens, UniProt P28222); assay: 5-HTR1B activity assay (Agonist/Antagonist); type: cell-based
[5] = biological target: 5-Hydroxytryptamine (Serotonin) Receptor 2B (Homo sapiens, UniProt P41595); assay: 5-HTR2B activity assay (Agonist/Antagonist); type: cell-based
human DAT = biological target: T1, human DAT (Homo sapiens, UniProt Q01959); assay: hDAT release assay ([3H]dopamine release); type: cell-based
T1 construct: expressed in transfected cells; host or cells: Chinese hamster ovary (CHO) cells

human SERT = biological target: T2, human SERT (Homo sapiens, UniProt P31645); assay: hSERT release assay ([3H]serotonin release); type: cell-based
T2 construct: expressed in transfected cells; host or cells: Chinese hamster ovary (CHO) cells

Dopamine transporter = Dopamine transporter (Homo sapiens, UniProt Q01959); assay: DAT monoamine transporter uptake assay (Blocker)
[6] = biological target: Norepinephrine transporter (Homo sapiens, UniProt P23975); assay: NET monoamine transporter uptake assay (Blocker)
DAT / NET = settings: neurotransmitter release; cited from earlier work
[7] = biological target: Nicotinic acetylcholine Receptor α4 β2 (Homo sapiens, UniProt P17787+P43681); type: cell-based; settings: nACHR(a4/b2), Blocker mode; positive control; read-out: RC50 (Result Type IC50)
[8] = biological target: Gamma-aminobutyric acid Receptor A; type: cell-based; settings: GABAA, Blocker mode; positive control; read-out: RC50 (Result Type IC50)

T1 sequence (Q01959 whole entry): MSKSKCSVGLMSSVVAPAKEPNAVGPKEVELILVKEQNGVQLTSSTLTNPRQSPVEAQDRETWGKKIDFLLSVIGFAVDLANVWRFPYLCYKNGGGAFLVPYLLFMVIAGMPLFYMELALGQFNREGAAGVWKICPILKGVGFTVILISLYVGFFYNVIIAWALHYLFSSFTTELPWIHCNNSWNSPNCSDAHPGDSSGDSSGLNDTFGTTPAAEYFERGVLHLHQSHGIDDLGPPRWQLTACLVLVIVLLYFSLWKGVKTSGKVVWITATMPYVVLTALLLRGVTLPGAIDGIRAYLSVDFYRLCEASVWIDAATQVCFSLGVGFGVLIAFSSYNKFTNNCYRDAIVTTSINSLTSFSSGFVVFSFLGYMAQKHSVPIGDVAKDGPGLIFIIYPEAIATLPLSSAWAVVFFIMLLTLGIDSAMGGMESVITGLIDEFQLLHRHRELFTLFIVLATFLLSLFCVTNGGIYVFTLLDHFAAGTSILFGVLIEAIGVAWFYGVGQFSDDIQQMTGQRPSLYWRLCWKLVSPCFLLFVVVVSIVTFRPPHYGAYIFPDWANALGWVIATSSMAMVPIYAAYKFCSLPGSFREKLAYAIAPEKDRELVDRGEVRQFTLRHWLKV
Sequence of Dopamine transporter (Q01959 whole entry): as above
T2 sequence (P31645 whole entry): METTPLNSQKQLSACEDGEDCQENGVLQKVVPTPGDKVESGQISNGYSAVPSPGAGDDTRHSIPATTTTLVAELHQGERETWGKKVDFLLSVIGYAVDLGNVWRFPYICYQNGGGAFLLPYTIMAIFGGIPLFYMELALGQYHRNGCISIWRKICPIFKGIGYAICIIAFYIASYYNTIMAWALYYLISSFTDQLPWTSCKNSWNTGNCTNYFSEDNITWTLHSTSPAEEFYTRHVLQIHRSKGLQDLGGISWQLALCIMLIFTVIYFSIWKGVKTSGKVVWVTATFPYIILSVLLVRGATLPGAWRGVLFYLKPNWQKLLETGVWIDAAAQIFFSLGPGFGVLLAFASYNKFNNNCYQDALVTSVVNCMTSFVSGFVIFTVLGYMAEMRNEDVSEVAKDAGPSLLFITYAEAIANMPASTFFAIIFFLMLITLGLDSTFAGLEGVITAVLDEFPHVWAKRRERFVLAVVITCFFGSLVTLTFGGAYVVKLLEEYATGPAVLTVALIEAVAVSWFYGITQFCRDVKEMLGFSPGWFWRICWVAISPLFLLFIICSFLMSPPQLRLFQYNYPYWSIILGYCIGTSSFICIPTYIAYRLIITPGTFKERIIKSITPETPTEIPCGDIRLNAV
Sequence of 5-Hydroxytryptamine (Serotonin) Receptor 2B (P41595 whole entry): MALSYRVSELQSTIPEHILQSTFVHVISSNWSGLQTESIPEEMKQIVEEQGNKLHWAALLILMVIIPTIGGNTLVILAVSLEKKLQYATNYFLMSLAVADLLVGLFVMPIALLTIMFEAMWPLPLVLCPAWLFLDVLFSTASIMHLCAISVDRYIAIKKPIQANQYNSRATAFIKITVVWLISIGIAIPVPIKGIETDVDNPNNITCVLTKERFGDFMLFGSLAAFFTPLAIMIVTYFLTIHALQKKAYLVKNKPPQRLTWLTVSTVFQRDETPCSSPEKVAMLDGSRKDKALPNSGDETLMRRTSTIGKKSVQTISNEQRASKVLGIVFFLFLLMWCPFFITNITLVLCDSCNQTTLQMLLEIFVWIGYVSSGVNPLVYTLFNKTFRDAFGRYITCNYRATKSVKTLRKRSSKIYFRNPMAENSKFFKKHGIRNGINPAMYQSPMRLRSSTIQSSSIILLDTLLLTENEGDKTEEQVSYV
Sequence of 5-Hydroxytryptamine (Serotonin) Receptor 1B (P28222 whole entry): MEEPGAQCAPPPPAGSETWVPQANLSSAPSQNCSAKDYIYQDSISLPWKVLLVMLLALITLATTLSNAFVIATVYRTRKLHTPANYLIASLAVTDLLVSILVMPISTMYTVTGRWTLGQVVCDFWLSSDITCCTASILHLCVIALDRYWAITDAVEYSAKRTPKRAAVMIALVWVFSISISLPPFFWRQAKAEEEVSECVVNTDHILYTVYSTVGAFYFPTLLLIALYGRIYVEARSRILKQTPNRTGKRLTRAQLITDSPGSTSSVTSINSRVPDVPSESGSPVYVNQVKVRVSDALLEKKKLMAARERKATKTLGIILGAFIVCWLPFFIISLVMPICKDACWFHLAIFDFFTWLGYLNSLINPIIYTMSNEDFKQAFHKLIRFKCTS
Sequence of Norepinephrine transporter (P23975 whole entry): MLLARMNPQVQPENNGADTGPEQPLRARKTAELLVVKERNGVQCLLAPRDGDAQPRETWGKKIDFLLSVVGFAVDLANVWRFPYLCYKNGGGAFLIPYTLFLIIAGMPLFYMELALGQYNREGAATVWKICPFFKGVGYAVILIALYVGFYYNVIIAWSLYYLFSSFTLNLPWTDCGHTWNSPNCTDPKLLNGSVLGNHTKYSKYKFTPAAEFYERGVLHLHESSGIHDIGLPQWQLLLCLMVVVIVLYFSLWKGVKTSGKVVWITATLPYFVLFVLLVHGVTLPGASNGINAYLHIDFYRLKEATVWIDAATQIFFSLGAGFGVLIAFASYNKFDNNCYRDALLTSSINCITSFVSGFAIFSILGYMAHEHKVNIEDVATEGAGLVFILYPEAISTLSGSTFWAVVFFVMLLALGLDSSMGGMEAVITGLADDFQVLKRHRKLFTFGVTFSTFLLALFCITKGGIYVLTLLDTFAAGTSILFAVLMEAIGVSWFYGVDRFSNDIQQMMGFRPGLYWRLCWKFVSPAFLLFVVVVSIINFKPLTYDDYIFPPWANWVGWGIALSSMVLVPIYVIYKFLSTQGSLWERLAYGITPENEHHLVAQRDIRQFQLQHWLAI
Sequence of Nicotinic acetylcholine Receptor α4 β2 (P43681 29-627 limits assumed): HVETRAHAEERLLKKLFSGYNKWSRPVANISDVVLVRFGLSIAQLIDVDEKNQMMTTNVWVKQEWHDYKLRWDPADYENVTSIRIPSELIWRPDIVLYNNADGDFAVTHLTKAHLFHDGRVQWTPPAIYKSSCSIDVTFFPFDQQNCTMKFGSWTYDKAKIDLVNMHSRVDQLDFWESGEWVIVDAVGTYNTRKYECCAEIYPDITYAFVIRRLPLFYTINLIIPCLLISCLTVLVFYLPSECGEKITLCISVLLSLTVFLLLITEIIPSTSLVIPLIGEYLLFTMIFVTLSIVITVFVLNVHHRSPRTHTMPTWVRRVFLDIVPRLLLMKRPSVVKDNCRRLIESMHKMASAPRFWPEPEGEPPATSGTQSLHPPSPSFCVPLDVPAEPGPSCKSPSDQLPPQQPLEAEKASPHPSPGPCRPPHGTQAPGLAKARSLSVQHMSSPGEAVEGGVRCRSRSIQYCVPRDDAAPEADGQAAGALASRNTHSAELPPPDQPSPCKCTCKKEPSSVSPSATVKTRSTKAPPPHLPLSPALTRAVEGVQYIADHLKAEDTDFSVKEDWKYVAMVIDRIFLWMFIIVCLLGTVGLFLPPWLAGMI
Sequence of Nicotinic acetylcholine Receptor α4 β2 (P17787 26-502): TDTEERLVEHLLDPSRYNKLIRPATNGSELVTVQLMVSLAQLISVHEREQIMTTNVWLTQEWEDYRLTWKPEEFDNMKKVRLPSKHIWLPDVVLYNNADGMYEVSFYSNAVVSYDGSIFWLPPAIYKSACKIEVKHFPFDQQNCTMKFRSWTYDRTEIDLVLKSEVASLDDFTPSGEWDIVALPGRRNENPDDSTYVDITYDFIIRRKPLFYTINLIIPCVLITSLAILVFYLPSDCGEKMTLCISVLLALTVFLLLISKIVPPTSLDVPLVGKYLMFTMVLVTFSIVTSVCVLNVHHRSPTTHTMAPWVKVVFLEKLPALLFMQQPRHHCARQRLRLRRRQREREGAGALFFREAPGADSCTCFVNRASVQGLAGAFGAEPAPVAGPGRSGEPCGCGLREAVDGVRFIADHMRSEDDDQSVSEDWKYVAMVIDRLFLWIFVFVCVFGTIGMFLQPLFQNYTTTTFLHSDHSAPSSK

For `CCNC(C)Cc1ccc2c(c1)OCO2` (stereo not drawn) [MDEA, [1-(2H-1,3-benzodioxol-5-yl)propan-2-yl](ethyl)amine], the “DAT/SERT IC50 ratio” value (DAT / SERT [1]) is listed as 3.2 and the “DAT/SERT EC50 ratio” value (DAT / SERT [2]) is listed as 0.76.
For `CNC(C)Cc1ccc2c(c1)OCO2` (stereo not drawn) [MDMA], the “Emax for promoting neuritogenesis relative to ketamine” value (neuritogenesis) is given as “approximately twice that of ketamine”, the EC50 (neuritogenesis; read-out: EC50 for promoting neuritogenesis) is given as 7.41 nM and the “Duration of acute therapeutic effects” value [3] is given as 4.2 h. For the same molecule, the “DAT/SERT IC50 ratio” value (DAT / SERT [1]) was 0.08.
Molecule `CNC(C)C(=O)c1ccc2ccccn12` (stereo not drawn) [Structure XLX] has an EC50 [4] of 1130 nM, an IC50 [5] of 2140 nM and an EC50 (human DAT) of 227 nM. The “DAT/SERT ratio*” value (human DAT; calculated as (DAT EC50)^−1/(SERT EC50)^−1, larger numbers indicate higher DAT selectivity) was 2.1, the “Relative potency of release, DAT versus 5-HT” value (human DAT; hMAT release assays) was “more potent at releasing DAT than 5-HT” and the EC50 (human SERT) was 109 nM. For the same molecule, the IC50 (Dopamine transporter) was 2410 nM and the IC50 [6] was 5690 nM.
In the case of `C[C@H](N)Cc1ccccc1` [d-amphetamine, D-amphetamine], the “DAT/NET EC50 ratio” value (DAT / NET) is given as 0.9.
For `CN[C@@H](C)Cc1ccccc1` [d-methamphetamine], the “DAT/NET EC50 ratio” value (DAT / NET) is listed as 0.5.
Dihydro-AY-erythroidine gave an IC50 [7] of 682 nM.
Work on Picrotoxin yielded an IC50 [8] of 2780 nM.
